Data reported in patent US8124793B2, “Derivatives of ethylene methanedisulfonate as cancer chemotherapeutic agents” (priority 2007, dated 2012).

Experiments:
Format in all cases: cell-based
CCRF-CEM = assay: NCI screen, growth of human tumor cells: Leukemia CCRF-CEM; details: CCRF-CEM
Outline: (§1)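 Growth of human tumor cells, expressed as percent, was determined in the NCI screen. Test data list the cancer type and the molar concentration applied.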

HL-60 (TB) = assay: NCI screen, growth of human tumor cells: Leukemia HL-60 (TB); details: HL-60 (TB) (Leukemia), 10^−4 molar
Experimental: (§2) In the NCI screening process, each compound was tested and described by a minimum of 60 data points. The test data include, but are not limited to the type of cancer, the molar concentration used in the screen, and the percent growth of the cancer. In some cases, NMR and elemental analysis were used for structural assignment.

K562 = assay: NCI screen, growth of human tumor cells: Leukemia K562; details: K562 (Leukemia), 10^−4 molar
Outline: as §1

MOLT-4 = assay: NCI screen, growth of human tumor cells: Leukemia MOLT-4; details: MOLT-4 (Leukemia), 10^−4 molar
Outline: as §1

RPMI-8226 = assay: NCI screen, growth of human tumor cells: Leukemia RPMI-8226
Outline: as §1

SR = assay: NCI screen, growth of human tumor cells: Leukemia SR; details: SR
Outline: as §1

AS49/ATCC = assay: NCI screen, growth of human tumor cells: Non-Small Cell Lung AS49/ATCC; details: AS49/ATCC (Non-Small Cell Lung), 10^−4 molar
Outline: as §1

EKVX = assay: NCI screen, growth of human tumor cells: Non-Small Cell Lung EKVX; details: EKVX (Non-Small Cell Lung), 10^−4 molar
Outline: as §1

HOP-62 = assay: NCI screen, growth of human tumor cells: Non-Small Cell Lung HOP-62; details: HOP-62, 10^−4 molar
Outline: as §1

HOP-92 = assay: NCI screen, growth of human tumor cells: Non-Small Cell Lung HOP-92; details: HOP-92, 10^−4 molar
Outline: as §1

NCI-H226 = assay: NCI screen, growth of human tumor cells: Non-Small Cell Lung NCI-H226; details: NCI-H226, 10^−4 molar
Outline: as §1

NCI-H522 = assay: NCI screen, growth of human tumor cells: Non-Small Cell Lung NCI-H522; details: NCI-H522 (Non-Small Cell Lung), 10^−4 molar
Outline: as §1

NCI-H322M = assay: NCI screen, growth of human tumor cells: Non-Small Cell Lung NCI-H322M; details: NCI-H322M (Non-Small Cell Lung), 10^−4 molar
Outline: as §1

NCI-H23 = assay: NCI screen, growth of human tumor cells: Non-Small Cell Lung NCI-H23
Outline: as §1

HCC-2998 = assay: NCI screen, growth of human tumor cells: HCC-2998 (listed under Non-Small Cell Lung); details: HCC-2998, 10^−4 molar
Outline: as §1

COLO205 = assay: NCI screen, growth of human tumor cells: Colon Cancer COLO205; details: COLO205, 10^−4 molar
Outline: as §1

HCT-116 = assay: NCI screen, growth of human tumor cells: Colon Cancer HCT-116; details: HCT-116, 10^−4 molar
Outline: as §1

HT29 = assay: NCI screen, growth of human tumor cells: Colon Cancer HT29; details: HT29 (Colon Cancer), 10^−4 molar
Outline: as §1

KM12 = assay: NCI screen, growth of human tumor cells: Colon Cancer KM12; details: KM12 (Colon Cancer), 10^−4 molar
Outline: as §1

SW620 = assay: NCI screen, growth of human tumor cells: Colon Cancer SW620; details: SW620, 10^−4 molar
Outline: as §1

SF-268 = assay: NCI screen, growth of human tumor cells: CNS Cancer SF-268; details: SF-268 (CNS Cancer), 10^−4 molar
Outline: as §1

SF-295 = assay: NCI screen, growth of human tumor cells: CNS Cancer SF-295; details: SF-295 (CNS Cancer), 10^−4 molar
Outline: as §1

XF 498 = assay: NCI screen, growth of human tumor cells: CNS Cancer XF 498; details: XF 498 (CNS Cancer), 10^−4 molar
Experimental: (§3) The compounds listed in Section II are arranged by their NSC number followed by the percent of growth of human tumor cells when the compound is administrated at 10^−4 molar concentration.
as §2

SF-539 = assay: NCI screen, growth of human tumor cells: CNS Cancer SF-539; details: SF-539 (CNS Cancer), 10^−4 molar
Outline: as §1

SNB-75 = assay: NCI screen, growth of human tumor cells: CNS Cancer SNB-75; details: SNB-75 (CNS Cancer), 10^−4 molar
Outline: as §1

SNB-78 = assay: NCI screen, growth of human tumor cells: CNS Cancer SNB-78; details: SNB-78 (CNS Cancer), 10^−4 molar
Experimental: as §3, §2

LOXIMVI = assay: NCI screen, growth of human tumor cells: Melanoma LOXIMVI; details: LOXIMVI, 10^−4 molar
Outline: as §1

MALME-3M = assay: NCI screen, growth of human tumor cells: Melanoma MALME-3M; details: MALME-3M, 10^−4 molar
Outline: as §1

SK-MEL-2 = assay: NCI screen, growth of human tumor cells: Melanoma SK-MEL-2; details: SK-MEL-2, 10^−4 molar
Outline: as §1

SK-MEL-28 = assay: NCI screen, growth of human tumor cells: Melanoma SK-MEL-28; details: SK-MEL-28 (Melanoma), 10^−4 molar
Outline: as §1

SK-MEL-5 = assay: NCI screen, growth of human tumor cells: Melanoma SK-MEL-5; details: SK-MEL-5, 10^−4 molar
Outline: as §1

UACC-257 = assay: NCI screen, growth of human tumor cells: Melanoma UACC-257; details: UACC-257 (Melanoma), 10^−4 molar
Outline: as §1

UACC-62 = assay: NCI screen, growth of human tumor cells: Melanoma UACC-62; details: UACC-62, 10^−4 molar
Outline: as §1

IGROVI = assay: NCI screen, growth of human tumor cells: Ovarian Cancer IGROVI; details: IGROVI (Ovarian Cancer), 10^−4 molar
Outline: as §1

SK-OV-3 = assay: NCI screen, growth of human tumor cells: Ovarian Cancer SK-OV-3; details: SK-OV-3 (Ovarian Cancer), 10^−4 molar
Outline: as §1

OVCAR-3 = assay: NCI screen, growth of human tumor cells: Ovarian Cancer OVCAR-3; details: OVCAR-3 (Ovarian Cancer), 10^−4 molar
Outline: as §1

OVCAR-4 = assay: NCI screen, growth of human tumor cells: Ovarian Cancer OVCAR-4; details: OVCAR-4 (Ovarian Cancer), 10^−4 molar
Outline: as §1

OVCAR-8 = assay: NCI screen, growth of human tumor cells: Ovarian Cancer OVCAR-8; details: OVCAR-8 (Ovarian Cancer), 10^−4 molar
Outline: as §1

786-0 = assay: NCI screen, growth of human tumor cells: Renal Cancer 786-0; details: 786-0, 10^−4 molar
Outline: as §1

RXF-631 = assay: NCI screen, growth of human tumor cells: Renal Cancer RXF-631; details: RXF-631 (Renal Cancer), 10^−4 molar
Experimental: as §3, §2

TK-10 = assay: NCI screen, growth of human tumor cells: Renal Cancer TK-10; details: TK-10 (Renal Cancer), 10^−4 molar
Experimental: as §2

SN12C = assay: NCI screen, growth of human tumor cells: Renal Cancer SN12C; details: SN12C (Renal Cancer), 10^−4 molar
Outline: as §1

CAKI-1 = assay: NCI screen, growth of human tumor cells: Renal Cancer CAKI-1; details: CAKI-1, 10^−4 molar
Outline: as §1

UO-31 = assay: NCI screen, growth of human tumor cells: Renal Cancer UO-31; details: UO-31, 10^−4 molar
Outline: as §1

DMS114 = assay: NCI screen, growth of human tumor cells: Small Cell Lung Cancer DMS114; details: 10^−4 molar
Experimental: as §3, §2

DMS273 = assay: NCI screen, growth of human tumor cells: Small Cell Lung Cancer DMS273; details: 10^−4 molar
Experimental: as §3, §2

LXFL529 = assay: NCI screen, growth of human tumor cells: Non-Small Cell Lung Cancer LXFL529
A498 = assay: NCI screen, growth of human tumor cells: Renal Cancer A498; details: A498, 10^−4 molar

O=S1(=O)OCCOS(=O)(=O)C1(I)I [NSC 648308, ethylene diiodomethanedisulfonate]
% Growth (CCRF-CEM; 10^−4 molar): −44% | % Growth (CCRF-CEM; 10^−5 molar): 55% | percent of growth of human tumor cells (HL-60 (TB)): −16% | percent of growth of human tumor cells (K562): −16% | percent of growth of human tumor cells (MOLT-4): −22% | % Growth (RPMI-8226; RPMI-8226, 10^−4 molar): −37% | % Growth (RPMI-8226; RPMI-8226, 10^−5 molar): 48% | % Growth (SR; 10^−4 molar): −37% | % Growth (SR; 10^−5 molar): 48% | percent of growth of human tumor cells (AS49/ATCC): −17% | percent of growth of human tumor cells (EKVX): −35% | % Growth (HOP-62): −69% | % Growth (HOP-92): −78% | % Growth (NCI-H226): −91% | percent of growth of human tumor cells (NCI-H522): −45% | percent of growth of human tumor cells (NCI-H322M): −45% | % Growth (NCI-H23; NCI-H23, 10^−4 molar): −70% | % Growth (NCI-H23; NCI-H23, 10^−5 molar): 56% | % Growth (HCC-2998): −99% | % Growth (COLO205): −61% | % Growth (HCT-116): −100% | percent of growth of human tumor cells (HT29): −18% | percent of growth of human tumor cells (KM12): −58% | % Growth (SW620): −55% | percent of growth of human tumor cells (SF-268): −11% | percent of growth of human tumor cells (SF-295): −4% | percent of growth of human tumor cells (XF 498): −67% | percent of growth of human tumor cells (SF-539): −25% | percent of growth of human tumor cells (SNB-75): −36% | percent of growth of human tumor cells (SNB-78): −6% | % Growth (LOXIMVI): −93% | % Growth (MALME-3M): −80% | % Growth (SK-MEL-2): −80% | percent of growth of human tumor cells (SK-MEL-28): −29% | % Growth (SK-MEL-5): −91% | percent of growth of human tumor cells (UACC-257): −54% | % Growth (UACC-62): −82% | percent of growth of human tumor cells (IGROVI): −24% | percent of growth of human tumor cells (SK-OV-3): −49% | percent of growth of human tumor cells (OVCAR-3): −14% | percent of growth of human tumor cells (OVCAR-4): −39% | percent of growth of human tumor cells (OVCAR-8): −25% | % Growth (786-0): −95% | percent of growth of human tumor cells (RXF-631): −44% | percent of growth of human tumor cells (TK-10): −19% | percent of growth of human tumor cells (SN12C): −61% | % Growth (CAKI-1): −71% | % Growth (UO-31): −95% | percent of growth of human tumor cells (DMS114): −46% | percent of growth of human tumor cells (DMS273): −45% | % Growth (LXFL529; LXFL529, 10^−4 molar): −72% | % Growth (LXFL529; LXFL529, 10^−5 molar): 55% | % Growth (A498): −100%
